Source: patent US20130058998A1, “ENCAPSULATED N-ACETYLMANNOSAMINE OR N-ACETYLNEURAMINIC ACID TO INCREASE SIALYLATION” (United States of America as represented by the Secretary, …, priority 2011, published 2013)

Experiments:
cultured cells = details: Charter et al. 2000; cited from earlier work
[1] = test system: HIBM Gne M712T mutated pups; test: Survival of mutant HIBM Gne M712T pups after treatment; format: in vivo, mouse; details: for survival of mutant pups at P5: Gne M712T mutant pups, untreated 8% survived; for survival rates: orally delivered in drinking water, -/- pups
[2] = test system: Gne-deficient mouse embryonic stem cells; details: growth medium supplemented with ManNAc; Schwarzkopf et al. 2002; cited from earlier work
[3] = oral (not liposome-embedded), addition to drinking water

SMILES	incorporation of sialic acid analogs (SiaLev or SiaNAz) into cell surface glycoconjugates (cultured cells)	survival of mutant pups at P5 ([1]; intravenous (IV) injection at P1, ManNAc-Lipoplex in 2 different mouse backgrounds)	survival of mutant pups at P5 [1, 3]	survival rates [1]	sialylation of hyposialylated cells [2]
CC(=O)CCC(=O)N[C@@H]1C(O)O[C@H](CO)[C@@H](O)[C@@H]1O (some centres unmarked) [ManLev, N-levulinoylmannosamine]	resulted in incorporation of the downstream sialic acid analogs				
CC(=O)N[C@H]1[C@@H](O)[C@H](O)[C@@H](CO)O[C@H]1O [ManNAc, N-acetyl-D-mannosamine]		8%	48%	48%	became resialylated
[N-]=[N+]=NCC(=O)N[C@@H]1C(O)O[C@H](CO)[C@@H](O)[C@@H]1O (some centres unmarked) [ManNAz, N-azidoacetyl-mannosamine]	resulted in incorporation of the downstream sialic acid analogs				
CC(=O)N[C@H]1[C@H]([C@H](O)[C@H](O)CO)OC(O)(C(=O)O)C[C@@H]1O (some centres unmarked) [NANA, N-acetylneuraminic acid]			10%	10%	
